Assay results as given in the supplement of paper PMC10307832.

Experiments:
Test in all cases: relative viability (nuclei count vs DMSO), 5 days (fraction); higher = more cells survive
[1] = tested on: NCI-H322M
Summary of the method: (§1)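 Relative viability divides the nuclei count in treated wells by that in vehicle wells. Lung cancer cell lines were seeded in 1536-well plates, dosed by pin tool the next day, and fixed and stained after 5 days in one step with final 0.05% Triton X-100, 1% formaldehyde and 1 ug/ml Hoechst. Dosing was a single drug or a fixed anchor-drug dose plus five library-drug doses (not always all listed) in √10 steps, and values are medians of duplicate plates imaged at 4×.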

[2] = tested on: EPLC-272H
Summary of the method: as §1

[3] = tested on: NCI-H2347
Summary of the method: as §1

[4] = tested on: NCI-H1563
Summary of the method: as §1

[5] = tested on: NCI-H1993
Summary of the method: as §1

[6] = tested on: LXF-289
Summary of the method: as §1

[7] = tested on: SW 1573
Summary of the method: as §1

[8] = tested on: H3255
Summary of the method: as §1

[9] = tested on: NCI-H2126
Summary of the method: as §1

[10] = tested on: NCI-H647
Summary of the method: as §1

[11] = tested on: HOP-62
Summary of the method: as §1

[12] = tested on: EMC-BAC-2
Summary of the method: as §1

[13] = tested on: NCI-H1650
Summary of the method: as §1

[14] = tested on: NCI-H1915
Summary of the method: as §1

[15] = tested on: NCI-H661
Summary of the method: as §1

[16] = tested on: NCI-H2023
Summary of the method: as §1

[17] = tested on: SK-LU-1
Summary of the method: as §1

[18] = tested on: NCI-H2085
Summary of the method: as §1

[19] = tested on: NCI-H2009
Summary of the method: as §1

[20] = tested on: LCLC-97TM1
Summary of the method: as §1

[21] = tested on: NCI-H727
Summary of the method: as §1

[22] = tested on: PC-14
Summary of the method: as §1

CC1(C)CCC(c2ccc(Cl)cc2)=C(CN2CCN(c3ccc(C(=O)NS(=O)(=O)c4ccc(N[C@H](CCN5CCOCC5)CSc5ccccc5)c(S(=O)(=O)C(F)(F)F)c4)cc3)CC2)C1 [Navitoclax] + C[C@@H](Oc1cc(-c2cnn(C3CCNCC3)c2)cnc1N)c1c(Cl)ccc(F)c1Cl [Crizotinib] (partner 1 µM)
relative viability ([1]; first compound 0.005 µM): 0.885 | relative viability ([1]; first compound 0.01581 µM): 0.954 | relative viability ([1]; first compound 0.05 µM): 0.839 | relative viability ([1]; first compound 0.1581 µM): 0.858 | relative viability ([1]; first compound 0.5 µM): 0.92 | relative viability ([2]; first compound 0.005 µM): 1.37 | relative viability ([2]; first compound 0.1581 µM): 0.99 | relative viability ([2]; first compound 0.5 µM): 1.08 | relative viability ([3]; first compound 0.005 µM): 0.653 | relative viability ([3]; first compound 0.01581 µM): 0.602 | relative viability ([3]; first compound 0.05 µM): 0.2 | relative viability ([3]; first compound 0.1581 µM): 0.681 | relative viability ([3]; first compound 0.5 µM): 0.705 | relative viability ([4]; first compound 0.005 µM): 0.908 | relative viability ([4]; first compound 0.01581 µM): 0.92 | relative viability ([4]; first compound 0.05 µM): 0.897 | relative viability ([4]; first compound 0.1581 µM): 0.808 | relative viability ([4]; first compound 0.5 µM): 1.12 | relative viability ([5]; first compound 0.005 µM): 0.89 | relative viability ([5]; first compound 0.01581 µM): 1 | relative viability ([5]; first compound 0.05 µM): 0.848 | relative viability ([5]; first compound 0.1581 µM): 0.853 | relative viability ([5]; first compound 0.5 µM): 0.866 | relative viability ([6]; first compound 0.005 µM): 0.736 | relative viability ([6]; first compound 0.01581 µM): 0.836 | relative viability ([6]; first compound 0.05 µM): 0.787 | relative viability ([6]; first compound 0.1581 µM): 0.797 | relative viability ([6]; first compound 0.5 µM): 0.794 | relative viability ([7]; first compound 0.005 µM): 0.716 | relative viability ([7]; first compound 0.01581 µM): 0.794 | relative viability ([7]; first compound 0.05 µM): 0.674 | relative viability ([7]; first compound 0.1581 µM): 0.687 | relative viability ([7]; first compound 0.5 µM): 0.981 | relative viability ([8]; first compound 0.005 µM): 0.902 | relative viability ([8]; first compound 0.01581 µM): 1.06 | relative viability ([8]; first compound 0.05 µM): 0.807 | relative viability ([8]; first compound 0.1581 µM): 0.891 | relative viability ([8]; first compound 0.5 µM): 0.835 | relative viability ([9]; first compound 0.005 µM): 1.04 | relative viability ([9]; first compound 0.01581 µM): 1.05 | relative viability ([9]; first compound 0.05 µM): 1.07 | relative viability ([9]; first compound 0.1581 µM): 1.01 | relative viability ([9]; first compound 0.5 µM): 0.972 | relative viability ([10]; first compound 0.005 µM): 1.16 | relative viability ([10]; first compound 0.01581 µM): 1.18 | relative viability ([10]; first compound 0.05 µM): 1.42 | relative viability ([10]; first compound 0.1581 µM): 0.874 | relative viability ([10]; first compound 0.5 µM): 0.896 | relative viability ([11]; first compound 0.005 µM): 0.965 | relative viability ([11]; first compound 0.01581 µM): 1.09 | relative viability ([11]; first compound 0.05 µM): 0.926 | relative viability ([11]; first compound 0.1581 µM): 0.917 | relative viability ([11]; first compound 0.5 µM): 1.03 | relative viability ([12]; first compound 0.005 µM): 0.716 | relative viability ([12]; first compound 0.01581 µM): 0.689 | relative viability ([12]; first compound 0.05 µM): 0.743 | relative viability ([12]; first compound 0.1581 µM): 0.703 | relative viability ([12]; first compound 0.5 µM): 0.701 | relative viability ([13]; first compound 0.005 µM): 0.995 | relative viability ([13]; first compound 0.01581 µM): 1.13 | relative viability ([13]; first compound 0.05 µM): 1.17 | relative viability ([13]; first compound 0.1581 µM): 0.938 | relative viability ([13]; first compound 0.5 µM): 0.667 | relative viability ([14]; first compound 0.005 µM): 0.915 | relative viability ([14]; first compound 0.01581 µM): 0.881 | relative viability ([14]; first compound 0.05 µM): 0.877 | relative viability ([14]; first compound 0.1581 µM): 0.879 | relative viability ([14]; first compound 0.5 µM): 0.858 | relative viability ([15]; first compound 0.005 µM): 1.12 | relative viability ([15]; first compound 0.01581 µM): 0.964 | relative viability ([15]; first compound 0.05 µM): 0.947 | relative viability ([15]; first compound 0.1581 µM): 0.951 | relative viability ([15]; first compound 0.5 µM): 1 | relative viability ([16]; first compound 0.005 µM): 0.668 | relative viability ([16]; first compound 0.01581 µM): 0.65 | relative viability ([16]; first compound 0.05 µM): 0.694 | relative viability ([16]; first compound 0.1581 µM): 0.738 | relative viability ([16]; first compound 0.5 µM): 0.662 | relative viability ([17]; first compound 0.005 µM): 0.846 | relative viability ([17]; first compound 0.01581 µM): 0.975 | relative viability ([17]; first compound 0.05 µM): 1.14 | relative viability ([17]; first compound 0.1581 µM): 0.894 | relative viability ([17]; first compound 0.5 µM): 0.834 | relative viability ([18]; first compound 0.005 µM): 0.862 | relative viability ([18]; first compound 0.01581 µM): 0.838 | relative viability ([18]; first compound 0.05 µM): 0.861 | relative viability ([18]; first compound 0.1581 µM): 0.822 | relative viability ([18]; first compound 0.5 µM): 0.909 | relative viability ([19]; first compound 0.005 µM): 0.972 | relative viability ([19]; first compound 0.01581 µM): 1.05 | relative viability ([19]; first compound 0.05 µM): 1.1 | relative viability ([19]; first compound 0.1581 µM): 1.13 | relative viability ([19]; first compound 0.5 µM): 1.05 | relative viability ([20]; first compound 0.005 µM): 0.358 | relative viability ([20]; first compound 0.01581 µM): 0.337 | relative viability ([20]; first compound 0.05 µM): 0.294 | relative viability ([20]; first compound 0.1581 µM): 0.333 | relative viability ([20]; first compound 0.5 µM): 0.381 | relative viability ([21]; first compound 0.005 µM): 0.692 | relative viability ([21]; first compound 0.01581 µM): 1.11 | relative viability ([21]; first compound 0.1581 µM): 0.797 | relative viability ([21]; first compound 0.5 µM): 0.73 | relative viability ([22]; first compound 0.005 µM): 0.905 | relative viability ([22]; first compound 0.01581 µM): 0.977 | relative viability ([22]; first compound 0.05 µM): 0.951 | relative viability ([22]; first compound 0.1581 µM): 0.886 | relative viability ([22]; first compound 0.5 µM): 0.952
